Test results published in patent US8158621B2, “Methods of treating or preventing autoimmune diseases with 2,4-pyrimidinediamine compounds” (Rigel Pharmaceuticals, Inc., priority 2002, dated 2012).
pIC50: −log10 of the molar value.

Experiments:
[1] = tested on: bone marrow derived mast cells (BMMC); experiment: BMMC high cell density IgE activation: hexosaminidase; type: cell-based, mouse; settings: high cell density; read-out: BMMC anti-IgE Hexos.
Protocol: After sensitizing, cells are counted, pelleted (1000 rpm, 5-10 minutes), and resuspended at 1-3×10^6 cells/ml in MT buffer. Add 100 ul of cell suspension to each well and 100 ul of compound dilutions. The final vehicle concentration is 0.5% DMSO. Incubate at 37° C. (5% CO2) for 1 hour. After 1 hour of compound treatment, stimulate cells with 6× stimulus (60 ng/ml DNP-BSA). Mix wells with the cells and allow plates to incubate at 37° C. (5% CO2) for one hour. After 1 hour incubation, pellet cells (10 minutes, 1000 RPM) and collect 200 ul per well of the supernatant, being careful not to disturb pellet, and transfer to a clean tube or 96-well plate. Place the supernatant plate on ice. During the 4-5 hour step (see next) perform the hexosiminidase assay. Resuspend cell pellet in 240 ul WEI-conditioned media containing 0.5% DMSO and corresponding concentration of compound. Incubate BMMC cells for 4-5 hours at 37° C. (5% CO2). After incubation, pellet cells (1000 RPM, 10 minutes) and collect 225 ul per well and place in −80° C. until ready to perform ELISAS. ELISAS are performed on appropriately diluted samples (determined empirically for each donor cell population so that the sample measurement falls within the standard curve) following the supplier's instructions.
Add 50 uL of BMMC cell supernatant (see above) to the hexoseaminidase substrate, place at 37° C. for 30 minutes and read the plate at 5, 10, 15, and 30 minutes on a spectrophotometer.

[2] = tested on: cultured human mast cells (CHMC); experiment: CHMC low cell density ionomycin activation: tryptase assay; type: cell-based; settings: read-out: CHMC Ionomycin Tryptase
[3] = target: T1, Syk kinase (Homo sapiens, UniProt P43405); experiment: Syk kinase biochemical fluorescence polarization assay; settings: isolated Syk kinase, fluorescence polarization, 4 uM ATP
T1 construct: purchased Upstate, Lake Placid NY

[4] = tested on: cultured human mast cells (CHMC); experiment: CHMC low cell density IgE activation: tryptase assay; type: cell-based; settings: read-out: CHMC anti-IgE Tryptase
In short: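 Supernatant tryptase activity, assayed with substrate for 30 min at room temperature, served as the degranulation measure. Mast cells (1000-1500 per well depending on donor) sat 1 hr at 37° C in MT before a 30 min anti-IgE challenge at 37° C.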

[5] = tested on: Human Jurkat T-cells (clone N); experiment: Jurkat T-cell activation (anti-TCR, CD69 upregulation); type: cell-based
In short: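 Readout is CD69 upregulation by flow cytometry (anti-CD69-APC, 20 min at 4 °C) after 20 h anti-TCR (C305, 500 ng/ml) stimulation at 37 °C.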

[6] = Mouse Reverse Passive Arthus reaction (RPA reaction); type: in vivo, C57BL/6 mice; settings: oral
Protocol: In this model system, test compounds are administered at several timepoints prior to administration of Abs and Ags. A solution of rabbit anti-OVA IgG (50 μg in 25 μl/mouse) is injected intradermally, and immediately following is an intravenous injection of chicken egg albumin (20 mg/kg of body weight) in a solution containing 1% Evans blue dye. The degree of edema and hemorrhage is measured in the dorsal skin of C57BL/6 mice using the Evan's Blue dye as an indicator of local tissue damage. Purified polyclonal rabbit IgG is used as a control.
Pretreatment time, in which the test compounds are administered prior to Ab/Ag challenge, depends on the pharmacokinetic (PK) properties of each individual compound. Four hours after induction of Arthus reaction, mice are euthanized, and tissues are harvested for assessment of edema.

[7] = 50 mg/kg, pretreatment time 1.5 hrs
[8] = 50 mg/kg, pretreatment time 1.5 hrs + 4 hours
[9] = 100 mg/kg, pretreatment time 1 hrs + 4 hours
[10] = 100 mg/kg, pretreatment time 1.5 hrs
[11] = 100 mg/kg, pretreatment time 1.5 hrs + 4 hours

SMILES	pIC50 ([2]; low cell density)	pIC50 [3]	pIC50 ([4]; low cell density)	other results
CNC(=O)COc1cccc(Nc2ncc(F)c(Nc3ccc(OC(F)(F)F)c(C(=O)N4CCOCC4)c3)n2)c1 [Compound R950411]	< 5.00	–	–	pIC50 [1]: 5.40
COc1cc(Nc2ncc(F)c(Nc3cccc(N)n3)n2)cc(OC)c1 [Compound R927077]	5.06	6.22	6.55	–
O=C1Nc2cc(Nc3nc(Nc4ccc5cc[nH]c5c4)ncc3F)ccc2OC1(F)F [Compound R926977]	< 5.00	8.15	7.44	–
Cc1ccc(S(=O)(=O)O)cc1.Cc1ccc(S(=O)(=O)O)cc1.OCCCn1ncc2cc(Nc3ncc(F)c(Nc4ccc(Cl)c(Cl)c4)n3)ccc21 [Compound R935451]	< 5.00	–	< 5.00	% inhibition to vehicle control Edema Size ± SEM ([6]; 10 mg/kg, pretreatment time 1.5 hrs): −14.4 ± 13.3%; Plasma Concentration ± SEM (ng/ml) Exposure = Pretreatment Time + 4 hours ([6]; 10 mg/kg, pretreatment time 1.5 hrs + 4 hours): 14.4 ± 1.8 ng/mL; % inhibition to vehicle control Edema Size ± SEM ([6]; 30 mg/kg, pretreatment time 1.5 hrs): −30.6 ± 15.4%; Plasma Concentration ± SEM (ng/ml) Exposure = Pretreatment Time + 4 hours ([6]; 30 mg/kg, pretreatment time 1.5 hrs + 4 hours): 78.0 ± 32.0 ng/mL; % inhibition to vehicle control Edema Size ± SEM [6, 7]: 74.9 ± 7.5%; Plasma Concentration ± SEM (ng/ml) Exposure = Pretreatment Time + 4 hours [6, 8]: 385.0 ± 149.4 ng/mL; % inhibition to vehicle control Edema Size ± SEM [6, 10]: 77.1 ± 8.0%; Plasma Concentration ± SEM (ng/ml) Exposure = Pretreatment Time + 4 hours [6, 11]: 1459.0 ± 444.4 ng/mL
COc1ccc(Nc2ncc(F)c(Nc3cccc(N)n3)n2)cc1Cl [Compound R927082]	< 5.00	6.51	6.59	–
CNC(=O)C1Cc2cc(Nc3ncc(F)c(Nc4ccc5c(c4)NC(=O)C(F)(F)O5)n3)ccc2O1 (racemic) [Compound R927049]	< 5.00	8.40	6.96	–
CNC(=O)C1Cc2cc(Nc3ncc(F)c(Nc4ccc(OC(C)C)cc4)n3)ccc2O1 (stereo not drawn) [Compound R926956]	–	6.42	–	pIC50 ([2]; Low Density): < 5.00; pIC50 ([4]; Low Density): 6.68; pIC50 [5]: 6.13
COc1ccc(Nc2ncc(F)c(Nc3ccc4c(c3)NC(=O)[C@H](C)O4)n2)cc1Cl [Compound R909321]	4.52	6.98	6.79	–
COc1ccc(Nc2ncc(F)c(Nc3ccc4c(c3)NC(=O)C(F)(F)O4)n2)cc1Cl [Compound R926981]	< 5.00	8.00	6.86	–
COc1c(Cl)cc(Nc2ncc(F)c(Nc3ccc4c(c3)NC(=O)C(F)(F)O4)n2)cc1Cl [Compound R927061]	5.33	6.80	6.90	–
COc1ccc(Nc2ncc(F)c(Nc3ccc4c(c3)C(N)CCO4)n2)cc1Cl (racemic) [Compound R950428]	4.68	6.90	6.91	–
COc1cc(Nc2ncc(F)c(Nc3ccc(Cl)c(Cl)c3)n2)cc(OC)c1 [Compound R927060]	5.29	6.21	6.65	–
O=C1Nc2cc(Nc3nc(Nc4cc(Cl)cc(Cl)c4)ncc3F)ccc2OC1(F)F [Compound R926985]	5.38	6.69	6.85	–
COc1ccc(Nc2nc(Nc3ccc4cc[nH]c4c3)ncc2F)cc1Cl.Cc1ccc(S(=O)(=O)O)cc1 [Compound R927087]	< 5.00	–	6.36	% inhibition to vehicle control Edema Size ± SEM [6, 7]: −10.4 ± 14.4%; Plasma Concentration ± SEM (ng/ml) Exposure = Pretreatment Time + 4 hours [6, 8]: 26.9 ± 8.0 ng/mL; % inhibition to vehicle control Edema Size ± SEM [6, 10]: 28.7 ± 16.6%; Plasma Concentration ± SEM (ng/ml) Exposure = Pretreatment Time + 4 hours [6, 11]: 28.7 ± 10.8 ng/mL
CNC(=O)COc1cccc(Nc2ncc(F)c(Nc3cc(C)c(O)c(Cl)c3)n2)c1 [Compound R945366]	< 5.00	7.23	6.95	–
CN(C)Cc1cc2cc(Nc3ncc(F)c(Nc4ccc5c(c4)NC(=O)C(F)(F)O5)n3)ccc2o1 [Compound R926979]	4.63	7.89	6.96	–
CC(=O)N1CCN(c2ccc(Nc3ncc(F)c(NC4CC4)n3)cc2)CC1 [Compound R945370]	< 5.00	5.98	6.28	–
COc1c(C)cc(Nc2ncc(F)c(Nc3ccc4c(c3)-n3ccnc3CO4)n2)cc1Cl [Compound R935418]	< 5.00	6.25	6.64	–

More lines, main results first:

pIC50 ([2]; low cell density)	pIC50 [3]	pIC50 ([4]; low cell density)	SMILES	other results
5.37	7.64	7.52	Cc1cc(Nc2ncc(F)c(Nc3ccc4c(c3)NC(=O)C(C)(C)O4)n2)cc(Cl)c1O [Compound R940358]	pIC50 [5]: 6.80
< 5.00	–	7.44	CC1(C)Oc2ccc(Nc3nc(Nc4ccc5cn[nH]c5c4)ncc3F)cc2NC1=O.O=S(=O)(O)c1ccccc1 [Compound R935429]	% inhibition to vehicle control Edema Size ± SEM [6, 7]: −5.1 ± 14.9%; Plasma Concentration ± SEM (ng/ml) Exposure = Pretreatment Time + 4 hours [6, 8]: 164 ± 89 ng/mL; % inhibition to vehicle control Edema Size ± SEM ([6]; 100 mg/kg, pretreatment time 0 hrs): −2.8 ± 14.8%; Plasma Concentration ± SEM (ng/ml) Exposure = Pretreatment Time + 4 hours [6, 9]: 401 ± 96 ng/mL; % inhibition to vehicle control Edema Size ± SEM [6, 10]: 67.1 ± 13.8%; Plasma Concentration ± SEM (ng/ml) Exposure = Pretreatment Time + 4 hours [6, 11]: 206 ± 115 ng/mL; % inhibition to vehicle control Edema Size ± SEM ([6]; 100 mg/kg, pretreatment time 2 hrs): 55.5 ± 7.9%; % inhibition to vehicle control Edema Size ± SEM ([6]; 100 mg/kg, pretreatment time 4 hrs): 35.0 ± 11.4%
< 5.00	7.46	7.13	O=C1COc2ccc(Nc3nc(Nc4cccc(OCC(=O)NC5CCC5)c4)ncc3F)nc2N1 [Compound R945389]	–
< 5.00	9.00	7.34	O=C1Nc2cc(Nc3nc(Nc4ccc5cn[nH]c5c4)ncc3F)ccc2OC1(F)F [Compound R940364]	–
5.28	–	7.27	COc1cc(Nc2ncc(F)c(Nc3ccc4c(c3)NC(=O)C(C)(C)O4)n2)cc(OC)c1.Cc1ccc(S(=O)(=O)O)cc1 [Compound R927070]	% inhibition to vehicle control Edema Size ± SEM ([6]; 50 mg/kg, pretreatment time 1 hrs): 56 ± 15%; Plasma Concentration ± SEM (ng/ml) Exposure = Pretreatment Time + 4 hours ([6]; 50 mg/kg, pretreatment time 1 hrs + 4 hours): 1755 ± 310 ng/mL; % inhibition to vehicle control Edema Size ± SEM [6, 7]: 31.1 ± 17.29%; % inhibition to vehicle control Edema Size ± SEM ([6]; 100 mg/kg, pretreatment time 1 hrs): 61 ± 14%; Plasma Concentration ± SEM (ng/ml) Exposure = Pretreatment Time + 4 hours [6, 9]: 2851 ± 712 ng/mL; % inhibition to vehicle control Edema Size ± SEM [6, 10]: 55.5 ± 7.7%; Plasma Concentration ± SEM (ng/ml) Exposure = Pretreatment Time + 4 hours [6, 11]: 4095 ± 1187 ng/mL
< 5.00	6.78	6.79	COc1ccc(Nc2ncc(F)c(Nc3ccc4c(n3)NC(=O)CO4)n2)cc1Cl [Compound R945399]	–
< 5.00	8.05	6.93	O=C1COc2ccc(Nc3nc(Nc4cccc(OCC(=O)NC5CC5)c4)ncc3F)nc2N1 [Compound R945390]	–
< 5.00	< 5.00	5.60	CC(=O)N(C)c1ccc(Nc2ncc(F)c(Nc3ccc4c(n3)NC(=O)C(C)(C)O4)n2)cc1 [Compound R945417]	–
< 5.00	7.92	6.71	CN(C)C(=O)C1Cc2cc(Nc3ncc(F)c(Nc4ccc5c(c4)NC(=O)C(F)(F)O5)n3)ccc2O1 (stereo not drawn) [Compound R926983]	–
< 5.00	< 5.00	< 5.00	CC1(C)Oc2ccc(Nc3nc(Nc4ccc(OC(F)(F)F)c(Cl)c4)ncc3F)nc2NC1=O [Compound R940390]	–
4.79	7.15	6.97	CNC(=O)CCn1ncc2cc(Nc3ncc(F)c(Nc4ccc5c(c4)NC(=O)C(C)(C)O5)n3)ccc21 [Compound R935433]	–
5.07	7.30	7.44	CC1(C)Oc2ccc(Nc3nc(Nc4ccc5c(cnn5CCCO)c4)ncc3F)cc2NC1=O [Compound R935432]	–
